In ChEMBL document CHEMBL1125453, “Side chain modified 5-deazafolate and 5-deazatetrahydrofolate analogues as mammalian folylpolyglutamate synthetase and glycinamide ribonucleotide formyltransferase inhibitors: synthesis and in vitro biological evaluation” (J Med Chem, 1992) one finds IC50 and Ki data, which are given here for eight compounds.

The term IC50 denotes the point on the concentration scale where inhibition reaches its midpoint. Low readings indicate higher potency, high ones lower potency. In general, Ki refers to the dissociation constant of the complex between target and ligand, obtained from inhibition or displacement.

One experiment concerns the target Thymidylate synthase (Homo sapiens, UniProt P04818). The experiment can be described thus: In vitro inhibition of human thymidylate synthase (TS).
The target in experiment [1] is T1, Folylpolyglutamate synthase, mitochondrial (Mus musculus, UniProt P48760).
T1 sequence (P48760 whole entry): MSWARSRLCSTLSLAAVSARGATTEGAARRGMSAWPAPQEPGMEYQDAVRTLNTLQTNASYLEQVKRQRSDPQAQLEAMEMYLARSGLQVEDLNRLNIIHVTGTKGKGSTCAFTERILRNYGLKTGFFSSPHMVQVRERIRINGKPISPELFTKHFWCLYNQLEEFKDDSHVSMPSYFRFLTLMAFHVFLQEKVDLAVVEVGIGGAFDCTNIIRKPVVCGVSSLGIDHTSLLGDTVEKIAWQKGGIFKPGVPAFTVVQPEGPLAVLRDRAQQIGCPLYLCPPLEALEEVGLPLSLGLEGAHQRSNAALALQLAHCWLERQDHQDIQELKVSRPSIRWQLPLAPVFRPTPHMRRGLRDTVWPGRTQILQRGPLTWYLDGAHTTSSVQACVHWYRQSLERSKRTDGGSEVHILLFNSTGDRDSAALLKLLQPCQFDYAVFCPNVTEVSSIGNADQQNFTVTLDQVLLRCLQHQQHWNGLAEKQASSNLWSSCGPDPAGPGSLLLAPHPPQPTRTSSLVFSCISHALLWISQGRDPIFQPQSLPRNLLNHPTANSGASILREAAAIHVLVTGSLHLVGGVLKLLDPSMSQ
Nature of the experiment: In vitro inhibition of mouse liver Folyl-polyglutamate synthase.

The target of experiment [2] is T2, Trifunctional purine biosynthetic protein adenosine-3 (Mus musculus, UniProt Q64737).
T2 sequence (Q64737 whole entry): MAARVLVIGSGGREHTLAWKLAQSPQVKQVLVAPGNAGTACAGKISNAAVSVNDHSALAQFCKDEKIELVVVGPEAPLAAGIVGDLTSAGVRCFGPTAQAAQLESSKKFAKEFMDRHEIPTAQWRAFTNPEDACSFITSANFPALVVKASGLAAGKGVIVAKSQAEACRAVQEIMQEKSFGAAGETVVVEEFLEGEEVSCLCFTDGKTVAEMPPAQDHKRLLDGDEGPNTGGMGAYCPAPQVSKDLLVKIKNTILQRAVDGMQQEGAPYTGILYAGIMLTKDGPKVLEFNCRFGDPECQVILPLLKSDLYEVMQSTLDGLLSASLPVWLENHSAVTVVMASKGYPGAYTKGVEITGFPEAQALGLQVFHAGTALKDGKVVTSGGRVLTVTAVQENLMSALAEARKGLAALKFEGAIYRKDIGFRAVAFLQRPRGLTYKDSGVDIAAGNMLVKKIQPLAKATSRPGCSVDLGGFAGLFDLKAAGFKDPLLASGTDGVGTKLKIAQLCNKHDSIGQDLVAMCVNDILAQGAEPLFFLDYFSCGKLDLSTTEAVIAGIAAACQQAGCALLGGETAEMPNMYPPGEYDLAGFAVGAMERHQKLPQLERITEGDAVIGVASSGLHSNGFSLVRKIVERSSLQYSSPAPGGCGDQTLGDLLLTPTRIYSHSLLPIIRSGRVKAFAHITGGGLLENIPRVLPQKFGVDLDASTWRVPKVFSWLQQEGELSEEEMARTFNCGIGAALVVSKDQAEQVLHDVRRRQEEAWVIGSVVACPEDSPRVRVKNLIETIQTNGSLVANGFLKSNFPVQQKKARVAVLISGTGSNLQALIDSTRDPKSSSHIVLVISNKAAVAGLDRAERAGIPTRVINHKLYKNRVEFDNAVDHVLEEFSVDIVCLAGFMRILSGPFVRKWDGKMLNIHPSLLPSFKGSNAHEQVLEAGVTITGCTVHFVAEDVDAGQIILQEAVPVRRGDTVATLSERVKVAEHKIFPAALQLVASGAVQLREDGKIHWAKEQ
Nature of the experiment: In vitro inhibition of Glycinamide ribonucleotide formyltransferase from L1210 murine leukemia cells.

A further experiment addresses T3, Dihydrofolate reductase (Homo sapiens, UniProt P00374).
T3 sequence (P00374 whole entry): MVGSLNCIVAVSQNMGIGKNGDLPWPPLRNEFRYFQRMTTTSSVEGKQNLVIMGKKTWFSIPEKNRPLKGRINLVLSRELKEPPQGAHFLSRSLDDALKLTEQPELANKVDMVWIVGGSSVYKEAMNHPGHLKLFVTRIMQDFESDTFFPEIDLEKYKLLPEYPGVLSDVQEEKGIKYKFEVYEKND
The experiment can be described thus: In vitro inhibition of human dihydrofolate reductase (DHFR).

The target of experiment [3] is T2, Trifunctional purine biosynthetic protein adenosine-3. Nature of the experiment: In vitro inhibition of mouse GAR transformylase.

Chain of Thymidylate synthase (P04818 whole entry): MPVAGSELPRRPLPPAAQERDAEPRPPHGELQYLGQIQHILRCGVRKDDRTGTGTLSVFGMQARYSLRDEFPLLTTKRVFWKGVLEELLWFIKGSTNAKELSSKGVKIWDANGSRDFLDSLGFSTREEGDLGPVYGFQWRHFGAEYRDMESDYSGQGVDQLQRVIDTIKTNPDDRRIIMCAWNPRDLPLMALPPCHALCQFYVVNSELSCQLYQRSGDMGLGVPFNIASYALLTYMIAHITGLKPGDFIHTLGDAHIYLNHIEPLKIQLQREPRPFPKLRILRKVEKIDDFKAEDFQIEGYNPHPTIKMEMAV

Turning to `Nc1nc(O)c2c(n1)NCC(CNc1ccc(C(=O)NC(CCS(=O)(=O)O)C(=O)O)cc1)C2` (configuration not stated), the IC50 against Thymidylate synthase amounted to 2100 µM; on Dihydrofolate reductase it was 12 µM. Moreover, the Ki is 22 µM in experiment [1] and 0.19 µM in experiment [2].

Turning to `Nc1nc(O)c2c(n1)NCC(CNc1ccc(C(=O)NC(CCP(=O)(O)O)C(=O)O)cc1)C2` (configuration not stated), the IC50 against Thymidylate synthase came to 4200 µM; on Dihydrofolate reductase, 220 µM. Besides, the Ki in experiment [1] was 3.2 µM; in experiment [2] it was 0.047 µM.

As for `CCCN(Cc1ccc2nc(N)nc(O)c2c1)c1ccc(C(=O)NC(CCC(=O)O)C(=O)O)cc1` (configuration not stated), on Thymidylate synthase, 0.068 µM corresponded to half-maximal inhibition (IC50). This lies in the double-digit nanomolar range.

In turn, `Nc1nc(O)c2c(n1)CCC(CNc1ccc(C(=O)NC(CCC(=O)O)C(=O)O)cc1)C2` (configuration not stated) had a Ki in experiment [3] of 0.065 µM.

With `CCOP(=O)(O)CCC(NC(=O)c1ccc(NCc2cnc3nc(N)[nH]c(=O)c3c2)cc1)C(=O)O` (configuration not stated), the IC50 at Thymidylate synthase turned out to be 100 µM; against Dihydrofolate reductase, 1.3 µM. This compound displayed a Ki in experiment [1] of 2000 µM.

In the case of `CCOP(=O)(O)CCC(NC(=O)c1ccc(NCC2CNc3nc(N)nc(O)c3C2)cc1)C(=O)O` (configuration not stated), the IC50 is > 5000 µM against Thymidylate synthase and 950 µM against Dihydrofolate reductase. In addition, the Ki in experiment [1] was found to be 115 µM.

With `Nc1nc2ncc(CNc3ccc(C(=O)NC(CCS(=O)(=O)O)C(=O)O)cc3)cc2c(=O)[nH]1` (configuration not stated), the results for the IC50 against Thymidylate synthase and on Dihydrofolate reductase were 55 µM and 0.4 µM, respectively. In experiment [1], the Ki is 570 µM.

For `Nc1nc2ncc(CNc3ccc(C(=O)NC(CCP(=O)(O)O)C(=O)O)cc3)cc2c(=O)[nH]1` (configuration not stated), the IC50 is 300 µM on Thymidylate synthase and 4.7 µM on Dihydrofolate reductase. Further, in experiment [1], the Ki is 9 µM.
